Laboratory results reported in patent US7074789B2, “Kinase inhibitors” (Amgen Inc., priority 1999, dated 2006).
pIC50: −log10 of the molar value.

Columns and labels:
Format in all cases: biochemical
[1] = target: T1, Lck (Homo sapiens, UniProt P06239); test: Kinase inhibition assay (33P transfer), Lck; details: read-out: Lck-1
T1 construct: Kinases are expressed as either kinase domains or full length constructs; made in house
How it was run: (§1)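 Activity was read as 33P incorporation, counted by liquid scintillation after a 0.5% phosphoric acid wash, into poly(Glu,Tyr) 4:1 or poly(Arg,Ser) 3:1 substrates coated on plates. Enzymes were tagged (GST or polyHis) kinase domains or full-length proteins from bacterial or insect-cell expression, sometimes with regulatory polypeptides.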

[2] = target: T2, Zap-70 (Homo sapiens, UniProt P43403); test: Kinase inhibition assay (33P transfer), Zap-70; details: read-out: Zap-1
T2 construct: Kinases are expressed as either kinase domains or full length constructs; made in house
T2 sequence (P43403 1-619): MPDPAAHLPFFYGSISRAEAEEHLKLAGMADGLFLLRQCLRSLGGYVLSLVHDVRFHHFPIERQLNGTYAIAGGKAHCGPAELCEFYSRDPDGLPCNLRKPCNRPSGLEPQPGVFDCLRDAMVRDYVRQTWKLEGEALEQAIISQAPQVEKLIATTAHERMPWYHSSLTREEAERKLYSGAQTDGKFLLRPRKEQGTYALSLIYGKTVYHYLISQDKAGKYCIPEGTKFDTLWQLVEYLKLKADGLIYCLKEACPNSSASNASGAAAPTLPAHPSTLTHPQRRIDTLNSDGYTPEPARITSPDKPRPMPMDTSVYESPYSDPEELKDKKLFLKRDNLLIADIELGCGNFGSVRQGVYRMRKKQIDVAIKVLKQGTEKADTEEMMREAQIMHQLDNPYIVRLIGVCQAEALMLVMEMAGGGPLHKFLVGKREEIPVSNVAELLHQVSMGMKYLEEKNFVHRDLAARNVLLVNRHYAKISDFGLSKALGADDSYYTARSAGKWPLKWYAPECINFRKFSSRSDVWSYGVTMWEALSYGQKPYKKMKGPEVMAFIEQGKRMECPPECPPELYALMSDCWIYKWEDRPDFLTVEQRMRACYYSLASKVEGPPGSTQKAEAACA
How it was run: as §1

[3] = target: T3, Itk (Homo sapiens, UniProt Q08881); test: Kinase inhibition assay (33P transfer), Itk; details: read-out: Itk-1
T3 construct: Kinases are expressed as either kinase domains or full length constructs; made in house
T3 sequence (Q08881 1-620): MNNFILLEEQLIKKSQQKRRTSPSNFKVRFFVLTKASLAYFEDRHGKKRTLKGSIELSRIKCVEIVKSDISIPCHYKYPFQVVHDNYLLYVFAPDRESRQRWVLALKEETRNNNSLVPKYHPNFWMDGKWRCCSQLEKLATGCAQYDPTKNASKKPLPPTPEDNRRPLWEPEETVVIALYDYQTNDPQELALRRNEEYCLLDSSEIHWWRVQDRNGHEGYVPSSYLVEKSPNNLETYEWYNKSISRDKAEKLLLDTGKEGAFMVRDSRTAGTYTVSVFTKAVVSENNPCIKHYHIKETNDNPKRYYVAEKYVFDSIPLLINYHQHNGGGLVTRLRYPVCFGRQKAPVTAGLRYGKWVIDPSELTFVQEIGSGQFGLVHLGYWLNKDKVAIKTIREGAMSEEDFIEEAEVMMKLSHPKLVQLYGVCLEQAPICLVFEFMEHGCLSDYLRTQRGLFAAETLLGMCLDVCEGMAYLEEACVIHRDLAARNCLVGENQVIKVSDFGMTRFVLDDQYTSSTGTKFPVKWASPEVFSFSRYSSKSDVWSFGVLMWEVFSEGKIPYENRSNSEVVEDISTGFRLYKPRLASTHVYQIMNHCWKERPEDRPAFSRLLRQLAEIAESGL
How it was run: (§2)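 Read-out: scintillation counts of 33P moved from ATP onto synthetic peptide polymer coated on the well surface, after washing with 0.5% phosphoric acid. Enzymes were tagged (GST or polyHistidine) and came from bacterial or insect-cell expression. IC50 marks 50% loss of incorporated label.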

[4] = target: T4, EGFR (Homo sapiens, UniProt P00533); test: Kinase inhibition assay (33P transfer), EGFR; details: Table 2, kinase inhibition class; read-out: EGFR-1
T4 construct: Kinases are expressed as either kinase domains or full length constructs; made in house
How it was run: as §2

[5] = target: T5, ErbB2 (Homo sapiens, UniProt P04626); test: Kinase inhibition assay (33P transfer), ErbB2; details: read-out: ErbB2-2
T5 construct: Kinases are expressed as either kinase domains or full length constructs; made in house
Excerpt: The inhibitor compounds described herein are screened in the following manner. Kinases suitable for use in the following protocol to determine kinase activity of the compounds described herein include, -but are not limited to: Lck, Lyn, Src, Fyn, Syk, Zap-70, Itk, Tec, Btk, EGFR, ErbB2, Kdr, Flt-1, Flt-3, Tek, c-Met, InsR, and AKT.
Kinases are expressed as either kinase domains or full length constructs fused to glutathione S-transferase (GST) or polyHistidine tagged fusion proteins in either E. colior Baculovirus-High Five expression systems. They are purified to near homogeneity by affinity chromatography essentially as previously described (Lehr et al., 1996; Gish et al., 1995). In some instances, kinases are co-expressed or mixed with purified or partially purified regulatory polypeptides prior to measurement of activity.
Kinase activity and inhibition are measured essentially by established protocols (Braunwalder et al., 1996). Briefly, The transfer of ^33PO4 from ATP to the synthetic substrates poly(Glu, Tyr) 4:1 or poly(Arg, Ser) 3:1 attached to the bioactive surface of microtiter plates serves as the basis to evaluate enzyme activity. After an incubation period, the amount of phosphate transferred is measured by first washing the plate with 0.5% phosphoric acid, adding liquid scintillant, and then counting in a liquid scintillation detector. The IC50 is determined by the concentration of compound that causes a 50% reduction in the amount of […] incorporated onto the substrate bound to the plate.

[6] = target: T6, Kdr (Homo sapiens, UniProt P35968); test: Kinase inhibition assay (33P transfer), Kdr; details: read-out: KDR-1
T6 construct: Kinases are expressed as either kinase domains or full length constructs; made in house
How it was run: as §1

[7] = target: T7, c-Met (Homo sapiens, UniProt P08581); test: Kinase inhibition assay (33P transfer), c-Met; details: Table 2, kinase inhibition class; read-out: Met-1
T7 construct: Kinases are expressed as either kinase domains or full length constructs; made in house
How it was run: as §2

[8] = target: T8, AKT (Homo sapiens, UniProt Q9Y243); test: Kinase inhibition assay (33P transfer), AKT; details: Table 2, kinase inhibition class; read-out: AKT3-1
T8 construct: Kinases are expressed as either kinase domains or full length constructs; made in house
How it was run: as §1

[9] = target: T9, IGFR-1 (Homo sapiens, UniProt P08069); test: Kinase inhibition assay, IGFR-1 (Table 2); details: Table 2, kinase inhibition class
T9 construct: Kinases are expressed as either kinase domains or full length constructs; made in house

[10] = target: T10, PDGFRB (Homo sapiens, UniProt P09619); test: Kinase inhibition assay (33P transfer), PDGFRB; details: read-out: PDGFRB-1
T10 construct: Kinases are expressed as either kinase domains or full length constructs; made in house

[11] = target: T11, Tek (Homo sapiens, UniProt Q02763); test: Kinase inhibition assay (33P transfer), Tek; details: read-out: Tek-1
T11 construct: Kinases are expressed as either kinase domains or full length constructs; made in house
How it was run: as §2

T10 sequence (P09619 33-1106, species assumed): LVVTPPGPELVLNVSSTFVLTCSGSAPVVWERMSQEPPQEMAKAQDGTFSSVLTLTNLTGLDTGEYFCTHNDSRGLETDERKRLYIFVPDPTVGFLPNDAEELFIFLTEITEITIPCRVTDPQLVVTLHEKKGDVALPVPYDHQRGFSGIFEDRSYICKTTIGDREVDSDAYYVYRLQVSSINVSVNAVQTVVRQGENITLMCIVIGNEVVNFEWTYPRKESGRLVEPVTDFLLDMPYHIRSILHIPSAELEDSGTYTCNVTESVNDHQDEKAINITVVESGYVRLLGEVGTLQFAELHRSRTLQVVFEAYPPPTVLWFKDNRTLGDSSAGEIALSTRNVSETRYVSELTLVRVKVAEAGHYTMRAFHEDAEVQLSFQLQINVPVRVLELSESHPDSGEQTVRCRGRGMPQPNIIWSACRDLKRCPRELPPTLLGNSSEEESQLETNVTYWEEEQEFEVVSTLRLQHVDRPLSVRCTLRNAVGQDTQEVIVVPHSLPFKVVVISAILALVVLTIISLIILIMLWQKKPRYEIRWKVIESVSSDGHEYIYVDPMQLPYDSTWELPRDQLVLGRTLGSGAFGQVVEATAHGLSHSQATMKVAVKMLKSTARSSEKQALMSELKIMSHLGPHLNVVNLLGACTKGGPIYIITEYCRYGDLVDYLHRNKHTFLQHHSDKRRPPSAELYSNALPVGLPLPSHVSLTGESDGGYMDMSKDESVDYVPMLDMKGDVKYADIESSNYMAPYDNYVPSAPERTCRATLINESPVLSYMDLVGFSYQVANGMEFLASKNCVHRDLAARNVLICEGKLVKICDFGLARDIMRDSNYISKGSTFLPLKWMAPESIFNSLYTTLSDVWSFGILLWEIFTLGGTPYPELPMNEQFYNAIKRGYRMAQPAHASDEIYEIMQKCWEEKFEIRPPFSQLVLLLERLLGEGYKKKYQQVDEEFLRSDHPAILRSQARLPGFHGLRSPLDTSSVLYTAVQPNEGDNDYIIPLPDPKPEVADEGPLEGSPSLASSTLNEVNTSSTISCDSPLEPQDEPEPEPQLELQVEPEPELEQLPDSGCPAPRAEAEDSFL
T9 sequence (P08069 31-1367): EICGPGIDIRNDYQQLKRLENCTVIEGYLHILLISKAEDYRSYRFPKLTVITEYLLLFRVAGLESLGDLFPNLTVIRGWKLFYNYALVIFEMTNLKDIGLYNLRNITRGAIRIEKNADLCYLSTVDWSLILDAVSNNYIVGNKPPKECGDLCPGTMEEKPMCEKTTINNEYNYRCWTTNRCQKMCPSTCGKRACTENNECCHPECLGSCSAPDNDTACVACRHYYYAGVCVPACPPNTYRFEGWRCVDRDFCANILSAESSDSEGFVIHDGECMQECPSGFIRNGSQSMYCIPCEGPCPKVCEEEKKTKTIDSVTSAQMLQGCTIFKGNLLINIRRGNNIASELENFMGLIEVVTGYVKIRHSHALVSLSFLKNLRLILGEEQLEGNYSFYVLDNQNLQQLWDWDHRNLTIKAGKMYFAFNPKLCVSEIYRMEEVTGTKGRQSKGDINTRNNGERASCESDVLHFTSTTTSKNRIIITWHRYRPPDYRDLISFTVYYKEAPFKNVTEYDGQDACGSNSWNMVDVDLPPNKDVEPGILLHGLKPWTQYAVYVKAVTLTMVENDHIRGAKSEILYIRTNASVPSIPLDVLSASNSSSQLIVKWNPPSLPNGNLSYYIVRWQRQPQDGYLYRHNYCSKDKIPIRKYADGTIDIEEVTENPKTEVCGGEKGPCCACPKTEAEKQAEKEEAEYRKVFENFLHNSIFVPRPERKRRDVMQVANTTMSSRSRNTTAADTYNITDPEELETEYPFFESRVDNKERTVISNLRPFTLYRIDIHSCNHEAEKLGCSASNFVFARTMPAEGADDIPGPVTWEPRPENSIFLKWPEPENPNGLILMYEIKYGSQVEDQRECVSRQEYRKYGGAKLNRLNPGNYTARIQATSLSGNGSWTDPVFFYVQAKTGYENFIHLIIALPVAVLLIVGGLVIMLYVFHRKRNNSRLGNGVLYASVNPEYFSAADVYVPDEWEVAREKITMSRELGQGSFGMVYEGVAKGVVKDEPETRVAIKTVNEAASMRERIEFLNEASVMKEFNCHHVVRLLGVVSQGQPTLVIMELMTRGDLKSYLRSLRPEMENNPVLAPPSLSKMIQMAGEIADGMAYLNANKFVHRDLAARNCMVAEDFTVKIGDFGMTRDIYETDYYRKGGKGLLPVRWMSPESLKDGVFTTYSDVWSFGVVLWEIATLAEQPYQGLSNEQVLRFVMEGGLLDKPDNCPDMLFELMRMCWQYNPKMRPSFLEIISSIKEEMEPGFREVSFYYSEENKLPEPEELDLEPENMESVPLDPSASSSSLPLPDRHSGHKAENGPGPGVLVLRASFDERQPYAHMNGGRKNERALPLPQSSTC
T1 sequence (P06239 whole entry, species assumed, the tested form may be a part): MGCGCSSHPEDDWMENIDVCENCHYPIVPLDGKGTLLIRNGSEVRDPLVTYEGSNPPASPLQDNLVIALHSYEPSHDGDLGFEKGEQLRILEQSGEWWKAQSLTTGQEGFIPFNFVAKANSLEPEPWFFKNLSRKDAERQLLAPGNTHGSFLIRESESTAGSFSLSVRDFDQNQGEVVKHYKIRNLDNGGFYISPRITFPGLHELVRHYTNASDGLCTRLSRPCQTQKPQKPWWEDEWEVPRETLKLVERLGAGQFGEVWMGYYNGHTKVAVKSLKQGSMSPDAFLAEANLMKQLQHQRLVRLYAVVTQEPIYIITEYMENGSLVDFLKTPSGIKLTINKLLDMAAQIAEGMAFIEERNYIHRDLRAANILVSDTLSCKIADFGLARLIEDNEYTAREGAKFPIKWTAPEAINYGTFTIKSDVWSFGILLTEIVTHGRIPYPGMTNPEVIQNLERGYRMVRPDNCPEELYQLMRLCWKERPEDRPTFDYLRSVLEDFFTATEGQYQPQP
T8 sequence (Q9Y243 whole entry, the tested form may be a part): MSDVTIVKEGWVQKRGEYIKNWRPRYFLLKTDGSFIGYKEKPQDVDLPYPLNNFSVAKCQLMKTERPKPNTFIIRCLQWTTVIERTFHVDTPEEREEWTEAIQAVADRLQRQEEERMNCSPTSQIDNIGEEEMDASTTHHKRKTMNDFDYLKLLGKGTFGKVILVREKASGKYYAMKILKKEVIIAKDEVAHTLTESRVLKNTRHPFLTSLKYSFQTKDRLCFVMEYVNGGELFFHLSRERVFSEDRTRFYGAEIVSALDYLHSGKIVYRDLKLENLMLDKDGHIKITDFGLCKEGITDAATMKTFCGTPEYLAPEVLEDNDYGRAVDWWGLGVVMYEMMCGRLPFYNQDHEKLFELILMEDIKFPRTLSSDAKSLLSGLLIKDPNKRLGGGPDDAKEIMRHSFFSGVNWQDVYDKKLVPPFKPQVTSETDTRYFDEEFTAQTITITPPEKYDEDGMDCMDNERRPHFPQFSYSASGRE
T7 sequence (P08581 25-1390): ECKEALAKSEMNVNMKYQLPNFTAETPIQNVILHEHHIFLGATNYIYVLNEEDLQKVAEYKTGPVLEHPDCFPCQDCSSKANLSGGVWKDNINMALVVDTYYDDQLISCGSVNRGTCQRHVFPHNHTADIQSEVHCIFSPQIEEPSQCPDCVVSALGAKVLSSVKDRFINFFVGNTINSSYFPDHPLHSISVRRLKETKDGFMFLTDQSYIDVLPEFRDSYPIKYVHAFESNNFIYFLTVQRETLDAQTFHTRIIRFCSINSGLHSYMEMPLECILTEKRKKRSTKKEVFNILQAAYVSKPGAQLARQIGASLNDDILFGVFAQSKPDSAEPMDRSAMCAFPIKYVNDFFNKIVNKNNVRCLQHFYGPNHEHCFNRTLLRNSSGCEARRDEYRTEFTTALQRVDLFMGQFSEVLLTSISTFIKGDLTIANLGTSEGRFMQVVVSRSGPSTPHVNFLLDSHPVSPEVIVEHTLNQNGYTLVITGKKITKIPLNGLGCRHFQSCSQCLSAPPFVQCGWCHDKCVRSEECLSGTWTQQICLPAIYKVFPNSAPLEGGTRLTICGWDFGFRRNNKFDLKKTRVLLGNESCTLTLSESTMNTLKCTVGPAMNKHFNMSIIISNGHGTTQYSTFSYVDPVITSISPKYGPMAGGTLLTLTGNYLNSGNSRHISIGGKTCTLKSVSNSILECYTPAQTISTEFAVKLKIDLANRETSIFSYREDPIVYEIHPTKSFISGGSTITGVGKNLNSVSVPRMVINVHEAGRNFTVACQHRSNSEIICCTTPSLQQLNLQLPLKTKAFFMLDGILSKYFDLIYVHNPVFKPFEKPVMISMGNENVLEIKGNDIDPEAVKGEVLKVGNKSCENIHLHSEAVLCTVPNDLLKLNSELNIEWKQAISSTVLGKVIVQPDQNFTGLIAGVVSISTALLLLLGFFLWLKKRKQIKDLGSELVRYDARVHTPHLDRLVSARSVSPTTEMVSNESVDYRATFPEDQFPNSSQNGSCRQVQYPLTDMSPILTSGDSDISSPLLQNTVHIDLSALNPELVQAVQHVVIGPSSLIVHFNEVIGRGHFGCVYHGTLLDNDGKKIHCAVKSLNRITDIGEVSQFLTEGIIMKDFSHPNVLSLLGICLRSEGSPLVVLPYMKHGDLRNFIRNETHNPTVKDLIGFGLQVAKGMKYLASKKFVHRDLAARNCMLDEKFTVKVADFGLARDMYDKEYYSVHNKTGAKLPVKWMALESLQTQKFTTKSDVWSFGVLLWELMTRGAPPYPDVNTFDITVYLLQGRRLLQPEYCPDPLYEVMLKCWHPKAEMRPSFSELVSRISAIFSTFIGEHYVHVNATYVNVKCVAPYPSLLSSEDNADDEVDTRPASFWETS

Compound | pIC50 [1] | pIC50 [2] | pIC50 [3] | pIC50 [4] | pIC50 [5] | pIC50 [6] | pIC50 [7] | pIC50 [8] | pIC50 [9] | pIC50 [10] | pIC50 [11]
COc1cc(Nc2ncnc(-n3c(Nc4ccc(N(C)C)cc4)nc4ccccc43)n2)cc(OC)c1OC [Compound 1051] | > 6.11 | < 5.06 | 5.17 to 5.33 | < 5.06 | 5.33 to 6.11 | > 6.11 | < 5.06 | < 5.06 | 5.17 to 5.33 | 5.33 to 6.11 | 
COc1ccc(Nc2nc3ccccc3n2-c2ncnc(Nc3cc(OC)c(OC)c(OC)c3)n2)c(C)c1 [Compound 558] | 5.17 to 5.33 | 5.17 to 5.33 | < 5.06 | < 5.06 | 5.06 to 5.17 | > 6.11 | 5.17 to 5.33 | < 5.06 | < 5.06 | 5.33 to 6.11 | 
NC(=O)Cc1ccc(Nc2ncnc(Nc3cc(-c4ccccc4)n[nH]3)n2)cc1 [Compound 573] | > 5.98 | 5.04 to 5.21 | 5.21 to 5.98 | 5.21 to 5.98 | 5.04 to 5.21 | > 5.98 | 5.21 to 5.98 | 5.04 to 5.21 | > 5.98 | 5.21 to 5.98 | 
COc1cc(Nc2ncnc(Nc3cc(-c4cccc(C)c4)n[nH]3)n2)cc(OC)c1OC [Compound 1001] | > 6.03 | < 4.98 | 5.26 to 6.03 | 5.26 to 6.03 | 5.26 to 6.03 | 5.26 to 6.03 | > 6.03 | < 4.98 | > 6.03 |  | < 4.98
COc1cc(C)c(Nc2ncnc(-n3c(N)nc4ccccc43)n2)cc1OC [Compound 524] | 5.03 to 5.20 | < 4.92 | 4.92 to 5.03 | < 4.92 | 5.03 to 5.20 | 5.20 to 5.97 | 5.03 to 5.20 | < 4.92 | > 5.97 |  | < 4.92
COc1cc(Nc2ncnc(Nc3cc(-c4ccc(C)cc4)n[nH]3)n2)cc(OC)c1OC [Compound 521] | > 6.03 | < 4.98 | 5.26 to 6.03 | 5.26 to 6.03 | 5.26 to 6.03 | > 6.03 | > 6.03 | < 4.98 | > 6.03 |  | < 4.98
COc1ccc(Nc2ncnc(Nc3cccc(-c4ccnc(C)n4)c3)n2)cc1OC [Compound 789] | 5.24 to 6.02 | < 4.97 | < 4.97 | < 4.97 |  | < 4.97 | < 4.97 | < 4.97 | 5.24 to 6.02 | 5.07 to 5.24 | 
COc1cc(Nc2ncnc(Nc3cc(-c4cccc(C(F)(F)F)c4)n[nH]3)n2)cc(OC)c1OC [Compound 1000] | 5.31 to 6.09 | < 5.03 | < 5.03 | 5.14 to 5.31 | 5.14 to 5.31 | 5.31 to 6.09 | 5.14 to 5.31 | 5.03 to 5.14 | 5.31 to 6.09 |  | < 5.03
COC(=O)c1cc(OC)c(OC)cc1Nc1ncnc(-n2c(N)nc3ccccc32)n1 [Compound 476] | < 4.97 | < 4.97 | < 4.97 | < 4.97 | 5.08 to 5.24 | 4.97 to 5.08 | < 4.97 | < 4.97 | 5.24 to 6.02 |  | < 4.97
NC(=O)c1ccccc1Nc1ncnc(-n2c(N)nc3ccccc32)n1 [Compound 473] | 5.00 to 5.16 | 4.89 to 5.00 | < 4.89 | < 4.89 | 4.89 to 5.00 | 4.89 to 5.00 | 4.89 to 5.00 | < 4.89 | 5.00 to 5.16 |  | < 4.89
CC(C)(C)c1cc(Nc2ncnc(Nc3cccc(CC(=O)O)c3)n2)[nH]n1 [Compound 979] | < 4.91 | < 4.91 | < 4.91 | 5.18 to 5.96 |  | 5.02 to 5.18 | 5.18 to 5.96 | < 4.91 |  |  | < 4.91
O=c1[nH]c2ccccc2n1-c1ncnc(Nc2ccc(Cl)cc2Cl)n1 [Compound 504] | < 4.92 | < 4.92 | < 4.92 | < 4.92 |  | < 4.92 | < 4.92 | < 4.92 |  |  | 5.19 to 5.97
